Read-outs that look alike come from different tables or passages of the source. Non-standard residues stand in square brackets, D forms with d. Residues, ends and D or L forms follow the SMILES beside them. Groups on a side chain read outwards from the residue. *: point of attachment. Biotin = O=C1N[C@H]2[C@H](CS[C@H]2CCCCC(=O)*)N1; Ahx = NCCCCCC(=O)O
Assays:
HIV-1 strain LAV-Vbu3 [1] = system: HIV-1 strain LAV-Vbu3
in vitro = settings: human
HIV-1 strain LAV-Vbu3 [2] = assay: microbe, parasite or virus in culture; settings: Human immunodeficiency virus 1, MT2, 120 h, read-out: EC50 (anti-HIV activity)
[3] = set-up: method as in PMID 15546199; settings: PBS pH 7.4, 37°C; cited from earlier work
[4] = set-up: method as in PMID 15546199; settings: spiked plasma, 37°C; cited from earlier work

Row | SMILES | Therapeutic Index (LC50/EC50) (HIV-1 strain LAV-Vbu3 [1]; strain LAV-Vbu3) | CC50 (in vitro) [µM] | anti-HIV potency relative to L-Tat9 (times more potent) (HIV-1 strain LAV-Vbu3 [1]; MT-2 cells infected with HIV-1) [fold] | EC50 (HIV-1 strain LAV-Vbu3 [1]; strain LAV-Vbu3) [µM] | other results
1 | CC(=O)N[C@@H](CCCNC(=N)N)C(=O)N[C@@H](CCCCN)C(=O)N[C@@H](CCCCN)C(=O)N[C@@H](CCCNC(=N)N)C(=O)N[C@@H](CCCNC(=N)N)C(=O)N[C@@H](CCC(N)=O)C(=O)N[C@@H](CCCNC(=N)N)C(=O)N[C@@H](CCCNC(=N)N)C(=O)N[C@@H](CCCNC(=N)N)C(N)=O [L-Tat9, reference compound] | 1 | 53.8 | – | – | Therapeutic Index (LC50/EC50) (HIV-1 strain LAV-Vbu3 [1]; listed as L-form of Tat9): poorest therapeutic index; EC50 (HIV-1 strain LAV-Vbu3 [1]; read-out: EC50 (anti-HIV activity), MT-2 cells infected with HIV-1 strain LAV-Vbu3, MOI 0.01, MTT, 5 days): 51.3 µM
2 | CC(=O)N[C@H](CS)C(=O)N[C@H](CCCCNC(=O)CCCCCNC(=O)CCCC[C@@H]1SC[C@@H]2NC(=O)N[C@@H]21)C(=O)N[C@H](CCCNC(=N)N)C(=O)N[C@H](CCCNC(=N)N)C(=O)N[C@H](CCCNC(=N)N)C(=O)N[C@H](CCC(N)=O)C(=O)N[C@H](CCCNC(=N)N)C(=O)N[C@H](CCCNC(=N)N)C(=O)N[C@H](CCCCN)C(=O)N[C@H](CCCCN)C(=O)N[C@H](CCCNC(=N)N)C(N)=O [R.I.CK(biotin)-Tat9] (Ac-[dC][dK]([Ahx-Biotin])[dR][dR][dR][dQ][dR][dR][dK][dK][dR]-NH2) | 2600 | 46.8 | 2850 | 0.018 | anti-HIV potency relative to RI-Tat9 (times more potent) (HIV-1 strain LAV-Vbu3 [1]; MT-2 cells infected with HIV-1): 47 fold; R (ratio of the EC50 of the bioconjugate to that of its parent drug R.I.CK-Tat9 or SQV) (HIV-1 strain LAV-Vbu3 [1]; MT-2 cells, HIV-1 LAV-Vbu3, MOI 0.01): 0.02
3 | CC(=O)N[C@H](CS)C(=O)N[C@H](CCCCN)C(=O)N[C@H](CCCNC(=N)N)C(=O)N[C@H](CCCNC(=N)N)C(=O)N[C@H](CCCNC(=N)N)C(=O)N[C@H](CCC(N)=O)C(=O)N[C@H](CCCNC(=N)N)C(=O)N[C@H](CCCNC(=N)N)C(=O)N[C@H](CCCCN)C(=O)N[C@H](CCCCN)C(=O)N[C@H](CCCNC(=N)N)C(N)=O [R.I.CK-Tat9, N-acetyl-ckrrrqrrkkr-NH2] (Ac-[dC][dK][dR][dR][dR][dQ][dR][dR][dK][dK][dR]-NH2) | 35 | 29.8 | 60 | 0.85 | –
4 | CC(C)(C)NC(=O)[C@@H]1C[C@@H]2CCCC[C@@H]2CN1C[C@@H](O)[C@H](Cc1ccccc1)NC(=O)[C@H](CC(N)=O)NC(=O)c1ccc2ccccc2n1 [SQV(MeSO3H) (control), saquinavir, reference compound] | – | – | – | – | Therapeutic Index (LC50/EC50) (HIV-1 strain LAV-Vbu3 [1]; MT-2 cells, LC50 in uninfected cells / EC50 in infected cells): 1667; CC50 at 5 days (in vitro): 25 µM; EC50 (HIV-1 strain LAV-Vbu3 [2]): 0.015 µM
5 | CC(C)(C)NC(=O)[C@@H]1C[C@@H]2CCCC[C@@H]2CN1C[C@@H](OC(=O)C(N)CS)[C@H](Cc1ccccc1)NC(=O)[C@H](CC(N)=O)NC(=O)c1ccc2ccccc2c1 (stereo partly shown) [SQV-Cys ester] | – | – | – | – | half-life of release of active SQV (ester bond) [3]: 14 h; half-life of release of active SQV (ester bond) [4]: 0.9 h
